In publication PMC6271394, “Catechins and Procyanidins of Ginkgo biloba Show Potent Activities towards the Inhibition of β-Amyloid Peptide Aggregation and Destabilization of Preformed Fibrils” (Molecules, 2014):

Tests used:
preformed Aβ42 fibrils = biological target: T1, preformed Aβ42 fibrils (Homo sapiens, UniProt P05067); assay: Destabilization assay (ThT fluorescence): destabilization of preformed Aβ42 fibrils; assay type: biochemical; details: for EC50: fibrils preformed from 25 μM Aβ42 (24 h, 37 °C), further 24 h at 37 °C with compound, ThT fluorescence
T1 construct: The Aβ42 peptide was produced by Bachem AG; purchased Bachem AG
T1 sequence (P05067 672-713 limits assumed, species assumed): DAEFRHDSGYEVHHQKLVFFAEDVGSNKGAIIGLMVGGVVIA
Experimental: The destabilization assay used to evaluate the activities of the polyphenolic compounds towards the destabilization of preformed fibrils was performed as described by Ono et al.. Briefly, a reaction mixture containing 25 μM Aβ42 and 50 mM phosphate buffer (pH 7.5 and 100 mM NaCl) was incubated on a PCR system for 24 h at 37 °C to form fibrils. All of the test compounds (i.e., C, EC, GC, EGC, P-B1, and P-B3) were initially dissolved in DMSO at concentrations of 30, 100 and 300 μM, and 1 and 3 mM, before being added to the reaction mixture to give final concentrations of 0.3, 1.0, 3.0, 10, and 30 μM, respectively. The resulting mixtures were continued the incubation of 24 h at 37 °C, and then subjected to fluorescent measurements as in the polymerization assay.
(§1) The fluorescence measurements were recorded on an Envision® 2104 Multilabel Reader (Perkin Elmer, Waltham, MA, USA), with optimized excitation and emission wavelengths of 430 (BW 24 nm) and 470 nm (BW 24 nm), respectively. The reaction mixture contained 5 μM ThT and 50 mM of glycine-NaOH buffer (pH 8.5). The IC50 and EC50 values were calculated using the GraphPad Prism 5 software. All results were expressed as the mean ± SEM, and statistical analyses were performed using the Student’s t test.

Aβ42 [1] = biological target: T2, Aβ42 (Homo sapiens, UniProt P05067); set-up: method as in PMID 24727418; details: earlier work of the same authors; cited from earlier work
T2 construct: The Aβ42 peptide was produced by Bachem AG; purchased Bachem AG
T2 sequence (P05067 672-713 limits assumed, species assumed): as above

Aβ42 [2] = biological target: T2, Aβ42; assay: Polymerization assay (ThT fluorescence): inhibition of Aβ42 aggregation; assay type: biochemical; details: for IC50: 25 μM Aβ42, 1% DMSO, 50 mM phosphate buffer pH 7.5, 100 mM NaCl, ThT fluorescence
Experimental: The polymerization assay was performed as previously described in the literature. For single compounds, the reaction mixture contained 25 μM Aβ42, 0.3, 1.0, 3.0, 10, or 30 μM C, EC, GC, EGC, P-B1, or P-B3, 1% DMSO, 50 mM phosphate buffer (pH 7.5) and 100 mM NaCl. Prior to being tested, the compounds were dissolved in DMSO at concentrations of 30, 100 and 300 μM, and 1.0 and 3.0 mM, and then added to the reaction mixture to final concentrations 0.3, 1.0, 3.0, 10, and 30 μM, respectively. For the extract and its fractions, different concentration sequences were incubated in the reaction mixture. With the exception of one sequence (i.e., 3.0, 10, 30, 100 and 200 μg/mL) for Fr. Ts and another (i.e., 0.3, 1.0, 3.0, 10, 30 μg/mL) for Fr. Ps, one concentration sequence (i.e., 1.0, 3.0, 10, 30 and 100 μg/mL) was used for the extract and all of the other fractions.
as §1

Compound	EC50 (preformed Aβ42 fibrils) [µM]	activity towards Aβ42 aggregation in vitro (in words) (Aβ42 [1])	IC50 (Aβ42 [2]) [µM]	ability to destabilize fibrils (in words) (preformed Aβ42 fibrils; this paper's destabilization assay)	inhibitory activity towards Aβ42 aggregation (in words) (Aβ42 [2]; this paper's polymerization assay)
Oc1cc(O)c2c(c1)O[C@H](c1ccc(O)c(O)c1)[C@@H](O)C2 [C, (+)-catechin]	5.27 ± 1.26	very little activity	14.9 ± 3.42		
Oc1cc(O)c2c(c1)O[C@H](c1ccc(O)c(O)c1)[C@H](O)C2 [EC, (−)-epicatechin]	5.99 ± 0.6		9.44 ± 0.24		
Oc1cc(O)c2c(c1)O[C@H](c1cc(O)c(O)c(O)c1)[C@H](O)C2 [EGC, (−)-epigallocatechin]	7.76 ± 0.94		8.51 ± 0.96		
Oc1cc(O)c2c(c1)O[C@H](c1cc(O)c(O)c(O)c1)[C@@H](O)C2 [GC, (−)-gallocatechin]	15.7 ± 3.19		17.5 ± 0.57	least influence	least influence
Oc1cc(O)c2c(c1)O[C@H](c1ccc(O)c(O)c1)[C@H](O)[C@H]2c1c(O)cc(O)c2c1O[C@H](c1ccc(O)c(O)c1)[C@@H](O)C2 [P-B1, Procyanidin B1]	3.51 ± 0.32		3.28 ± 0.46		
Oc1cc(O)c2c(c1)O[C@H](c1ccc(O)c(O)c1)[C@@H](O)[C@@H]2c1c(O)cc(O)c2c1O[C@H](c1ccc(O)c(O)c1)[C@@H](O)C2 [P-B3, procyanidin B3]	5.12 ± 0.75		3.54 ± 0.39		
CC(C)(C)[C@]1(O)CC2OC(=O)CC23C(=O)OC2OC(=O)[C@H](O)C231 (stereo partly drawn) [bilobalide]		very little activity			
C[C@@H]1C(=O)O[C@H]2C[C@@]34[C@H]5C[C@@H](C(C)(C)C)[C@]36[C@@H](OC(=O)[C@@H]6O)O[C@@]4(C(=O)O5)[C@]21O [ginkgolides A, ginkgolide A]		very little activity			
ginkgolide B		very little activity			
